Test results published in patent US20240156790A1, “COMPOUNDS, COMPOSITIONS, AND METHODS FOR MODULATING FERROPTOSIS AND TREATING EXCITOTOXIC DISORDERS” (THE TRUSTEES OF COLUMBIA UNIVERSITY IN THE CITY OF NEW YORK, priority 2018, published 2024).
Entries after “also recorded” stand apart in the source; their conditions may differ. Like-named read-outs stand apart in the source and are kept apart here.

Legend:
HT-1080 cells = assay: Rescue activity of Fer-1 analogs: inhibition of erastin-, IKE- or RSL3-induced death (Alamar Blue viability); type: cell-based; details: Homo sapiens
Description: HT-1080 cells are cultured in DMEM containing 10% fetal bovine serum, 1% supplemented non-essential amino acids and 1% pen/strep mixture (Gibco) and maintained in a humidified environment at 37° C. with 5% CO2 in a tissue culture incubator. 1,000 HT-1080 cells are seeded per well in duplicate 384-well plates (Corning) using a BioMek FX liquid handling robot (Beckman Coulter). The next day, the medium is replaced with 36 μL of medium containing 10 μM erastin with 4 μL of medium containing a dilution series (previously prepared) of DMSO, Fer-1 (positive control) or Fer-1 analogs. […] Cells are incubated a further 6 hours and then the Alamar Blue fluorescence intensity recorded using a Victor 3 platereader (PerkinElmer)(ex/em 530/590). All experiments are performed at least twice and the background (no cells)-subtracted Alamar Blue values for each combination are averaged between replicates. The same procedure was repeated by replacing erastin (10 μM) with IKE (3 μM) or RSL3 (0.2 μM).

[1] = test system: N27 rat dopaminergic cells; assay: Suppression of ferroptosis induced by RSL3 in N27 cells (CellTiter-Glo viability); type: cell-based; details: for IC50: Rattus norvegicus, read-out: IC50; for ability to suppress ferroptosis, in words: RSL3 20 nM, 24 hours of incubation
[2] = HT-1080, ^a 50% viability, HT-1080 cells treated with 10 μM erastin
[3] = HT-1080, ^b 50% viability, HT-1080 treated with 3 μM IKE
[4] = HT-1080, ^c 50% viability, HT-1080 treated with 0.2 μM RSL3
[5] = N27, 24 h, Table 13, 20 nM RSL3, treated for 24 hours^d
[6] = N27, 48 h, Table 13, 20 nM RSL3, treated for 48 hours^e
[7] = N27, 24 h, Table 3, ^d 24 hr treatment, 1,000 cells/well seeded

Structure (SMILES) | EC50 (HT-1080 cells; [2]) | EC50 (HT-1080 cells; [3]) | EC50 (HT-1080 cells; [4]) | IC50 [1, 5] | other results
CC(C)(C)OC(=O)c1cnc(NC2CCCCC2)c(NC2CCCCC2)c1 [CFI-101] | 354 nM | 171 nM | 163 nM | – | –
C=C/C(=C\C(F)=C\COC(C)(C)C)NC12CC3CC(CC(C3)C1)C2 [CFI-A78] | – | 26 nM | 18 nM | – | –
Cc1noc(-c2ccc(NC3CCCCC3)c(NC3CCCC3)c2)n1 [TH-1-45-1, N1-cyclohexyl-N2-cyclopentyl-4-(3-methyl-1,2,4-oxadiazol-5-yl)benzene-1,2-diamine] | 33.8 nM | 17.3 nM | 5.1 nM | – | –
Cc1noc(-c2ccc(NC3CCCCC3)c(NC(C)C)c2)n1 [TH-1-45-2, N1-cyclohexyl-N2-isopropyl-4-(3-methyl-1,2,4-oxadiazol-5-yl)benzene-1,2-diamine] | 22.3 nM | 16.2 nM | 4.2 nM | – | –
CCC(CC)Nc1cc(-c2nc(C)no2)ccc1NC1CCCCC1 [TH-1-45-3, N1-cyclohexyl-4-(3-methyl-1,2,4-oxadiazol-5-yl)-N2-(pentan-3-yl)benzene-1,2-diamine] | 37.8 nM | 26.9 nM | 6.6 nM | – | –
Cc1noc(-c2ccc(NC3CCCCC3)c(NCc3ccccc3)c2)n1 [TH-1-53-2] | 44.5 nM | 40.2 nM | 9.4 nM | – | –
Cc1noc(-c2ccc(NC3CCCCC3)c(NCc3ccncc3)c2)n1 [TH-1-53-3, N1-cyclohexyl-4-(3-methyl-1,2,4-oxadiazol-5-yl)-N2-(pyridin-4-ylmethyl)benzene-1,2-diamine] | 63.8 nM | 63 nM | 31.5 nM | – | –
COc1ccc(N)c(NC(C)C)n1 [TH-3-83-2, N2-isopropyl-6-methoxypyridine-2,3-diamine] | – | – | – | 19.5 nM | IC50 [1, 6]: 33.6 nM
Cc1noc(-c2cc(N(C(C)C)C(C)C)cnc2NC2CCCCC2)n1 [TH-3-86-R2, N^2-cyclohexyl-N^5,N^5-diisopropyl-3-(3-methyl-1,2,4-oxadiazol-5-yl)pyridine-2,5-diamine] | – | – | – | – | IC50 [1, 6]: 1040 nM; IC50 ([1]; N27, text, 20 nM RSL3): 1000 nM
COc1ccc(NC2CCCCC2)c(NC(C)C)n1 [TH-3-95-1-r1, N3-cyclohexyl-N2-isopropyl-6-methoxypyridine-2,3-diamine] | – | – | – | 30.5 nM | IC50 [1, 6]: 22.4 nM
COc1ccc(NC(C)C)c(NC(C)C)n1 [TH-3-95-2-R1, N2,N3-diisopropyl-6-methoxypyridine-2,3-diamine] | – | – | – | 35.7 nM | IC50 [1, 6]: 0.22 nM
Cc1noc(-c2cnc(NC3CCCCC3)c(NC3CCCC3)c2)n1 [TH-4-16-1, N^2-cyclohexyl-N^3-cyclopentyl-5-(3-methyl-1,2,4-oxadiazol-5-yl)pyridine-2,3-diamine] | – | – | – | 5.1 nM | IC50 [1, 7]: 5.1 nM; IC50 ([1]; N27, 48 h, Table 3, ^e 48 hr treatment, 1,000 cells/well seeded): 8.2 nM; IC50 [1, 6]: 8.2 nM
CCN(CC)c1ncc(-c2nc(C)no2)cc1[N+](=O)[O-] [TH-4-46-2, N,N-diethyl-5-(3-methyl-1,2,4-oxadiazol-5-yl)-3-nitropyridin-2-amine] | – | – | – | – | ability to suppress ferroptosis, in words [1]: unable to suppress ferroptosis
Cc1noc(-c2cnc(NC3CCCCC3)c([N+](=O)[O-])c2)n1 [TH-4-50-2, N-cyclohexyl-5-(3-methyl-1,2,4-oxadiazol-5-yl)-3-nitropyridin-2-amine] | – | – | – | – | ability to suppress ferroptosis, in words [1]: unable to suppress ferroptosis
CCC(CC)Nc1cnc(NC2CCCCC2)c(-c2nc(C)no2)c1 [TH-4-53-1, N^2-cyclohexyl-3-(3-methyl-1,2,4-oxadiazol-5-yl)-N^5-(pentan-3-yl)pyridine-2,5-diamine] | – | – | – | 32.7 nM | –
Cc1noc(-c2cc(NC3CCCC3)cnc2NC2CCCCC2)n1 [TH-4-53-2, N^2-cyclohexyl-N^5-cyclopentyl-3-(3-methyl-1,2,4-oxadiazol-5-yl)pyridine-2,5-diamine] | – | – | – | 1.8 nM | potency relative to fer-1, in words ([1]; 20 nM RSL3): more potent than fer-1; also recorded: the most potent of the analogs tested
Cc1noc(-c2cnc(NC3CCCCC3)c(NC3CCC3)c2)n1 [TH-4-55-1, N^3-cyclobutyl-N^2-cyclohexyl-5-(3-methyl-1,2,4-oxadiazol-5-yl)pyridine-2,3-diamine] | – | – | – | 2.2 nM | potency relative to fer-1, in words ([1]; 20 nM RSL3): more potent than fer-1; IC50 [1, 7]: 2.2 nM
Cc1noc(-c2cnc(NC3CCCC3)c([N+](=O)[O-])c2)n1 [TH-4-58-2, N-cyclopentyl-5-(3-methyl-1,2,4-oxadiazol-5-yl)-3-nitropyridin-2-amine] | – | – | – | – | ability to suppress ferroptosis, in words [1]: unable to suppress ferroptosis
Cc1noc(-c2cnc(NC3CCCC3)c(NC3CCC3)c2)n1 [TH-4-62, N^3-cyclobutyl-N^2-cyclopentyl-5-(3-methyl-1,2,4-oxadiazol-5-yl)pyridine-2,3-diamine] | – | – | – | 6.9 nM | IC50 [1, 7]: 6.9 nM
Cc1noc(-c2cnc(NC3CCCC3)c(NC3CCCCC3)c2)n1 [TH-4-66, N^3-cyclohexyl-N^2-cyclopentyl-5-(3-methyl-1,2,4-oxadiazol-5-yl)pyridine-2,3-diamine] | – | – | – | 3.1 nM | potency relative to fer-1, in words ([1]; 20 nM RSL3): more potent than fer-1; IC50 [1, 7]: 3.1 nM
CCC(CC)Nc1cc(-c2nc(C)no2)cnc1NC1CCCC1 [TH-4-68, N^2-cyclopentyl-5-(3-methyl-1,2,4-oxadiazol-5-yl)-N^3-(pentan-3-yl)pyridine-2,3-diamine] | – | – | – | 4 nM | IC50 [1, 7]: 4 nM
CCOC(=O)c1cnc(NC2CCCCC2)c(N)c1 [YZ1108, ethyl 5-amino-6-(cyclohexylamino)nicotinate] | 315 nM | 639 nM | 1040 nM | – | –
CCOC(=O)c1cnc(NC2CCCCC2)c(NCc2ccccc2)c1 [YZ1109, ethyl 5-(benzylamino)-6-(cyclohexylamino)nicotinate] | 317 nM | 166 nM | 115 nM | – | –
CC(C)(C)OC(=O)c1cnc(NC2CCCCC2)c(N)c1 [YZ1113, tert-butyl 5-amino-6-(cyclohexylamino)nicotinate] | 338 nM | 312 nM | 156 nM | – | –
CC(C)(C)OC(=O)c1cnc(NC23CC4CC(CC(C4)C2)C3)c(N)c1 [YZ1117, tert-butyl 6-(((3s,5s,7s)-adamantan-1-yl)amino)-5-aminonicotinate] | 85 nM | 68.4 nM | 39.1 nM | – | –
CC(C)(C)OC(=O)c1cnc(NC23CC4CC(CC(C4)C2)C3)c(NC2CCCCC2)c1 [YZ1118, tert-butyl 6-(((3s,5s,7s)-adamantan-1-yl)amino)-5-(cyclohexylamino)nicotinate] | – | 40.1 nM | 37.3 nM | – | –
